Test results from patent publication US20060117411A1, “Enhancing plant pathogen resistance via increasing BiP levels” (priority 1998, published 2006).

How the values were obtained:
β-1,3-glucanase mRNA = assay: Tunicamycin treatment of tobacco protoplasts, Northern blot of β-1,3-glucanase; assay type: cell-based, Nicotiana tabacum; conditions: tunicamycin 20 μg/mL
Experimental: To compare the CDE- and UPR-mediated induction of BiP, we wanted to test if both stimuli are additive. […] This is not surprising as protoplasts are prepared with CDEs. These protoplasts were then treated with tunicanycin, to superimpose the UPR onto the CDE response. […] The additional ER stress could trap BiP in malfolded protein complexes, thus making it unavailable to promote PR protein synthesis on the rough ER.
During prolonged incubation times, transcript levels encoding secretory proteins recover to almost normal (initial) values again. Identical results were obtained with other transcripts encoding the secretory proteins acidic chitinase and basic chitinase present in tobacco protoplasts, showing that the effect is not restricted to β-1,3-glucanase (data not shown).
(§1) Protoplasts RNAs were extracted as described by Jones et al., (1985). Leaves were ground in frozen liquid nitrogen and transferred to NTES buffer (0.1 M NaCl, 10 mM Tris pH 7.5, 1 mM EDTA, 1% SDS). Protoplasts samples were frozen in liquid nitrogen and thawed in NTES buffer. RNA was extracted after adding an equal volume of phenol/chloroform. Ethanol precipitation was carried out after incubation at −20° C. for 16 hours. The pellet was resuspended and RNA was selectively precipitated with LiCl (2M LiCl) for 2 hours on ice. The pellet was washed with 70% ethanol and resuspended in diethyl pyrocarbonate-treated water. […]

PR1 mRNA [1] = assay: SA spraying of Arabidopsis WT and saiI mutant, Northern blot of PR1; assay type: in vivo, Arabidopsis thaliana; conditions: SA 5 mM
Experimental: (§2) WT and saiI mutants of the same ecotype were sprayed with SA (5 mM) and incubated in the light. Total RNA was extracted and probed with the PR1 and BiP gene from Arabidopsis. The induction of PR1 in WT Arabidopsis was detected 3 hours after SA-treatment and continued to increase until 8 hours (FIG. 10). […] As in tobacco plants, BiP mRNA levels increase prior to PR1 transcripts in SA treated Arabidopsis plants (FIG. 10) and diminish after prolonged incubations (data not shown).
(§3) Plants of Nicotiana tabacum cultivar Petit Havana (Maliga et al., 1973) were axenically grown in MS medium (Murashige and Skoog, 1962), 2% Sucrose in a temperature controlled room at 25° C. with a 16 h day/[…] regime and a light irradiance of 200 μE.m^−2.s^−1. Arabidopsis thaliana Nössen WT and saiI plants (Shah et al., 1997) were grown under the same conditions.
Plants were sprayed with 5 mM SA and 0.5% Tween 20 from all sides, ensuring contact on both sides of each leaf of the plant. Typically, 10 ml of the SA solution was sprayed onto each plant. Plants were then transferred from the 16 h day/8 h night regime to constant light regime.
as §1, with “water. Gel blots of total RNA denatured in formamide and formaldehyde were prepared. RNA was blotted onto Hybond-N membrane (Amersham Corp), as described by the manufacturer.” for “water.”

BiP mRNA = assay: Treatment of Arabidopsis WT and saiI mutant, Northern blot of BiP; assay type: in vivo, Arabidopsis thaliana; conditions: Arabidopsis saiI mutant vs wild-type, SA 5 mM
Experimental: WT and saiI mutants of the same ecotype were treated with cell wall-degrading enzymes and incubated for 6 hours. As a control (con), leaves were mock-infected with H2O. Total RNA was extracted and Northern blot analysis was performed for BiP and a hevein-like protein (Hel) which is known to be induced by CDEs of Erwinia carotovora (Vidal et al, in preparation).
as §2, §3
Protoplasts RNAs were extracted as described by Jones et al., (1985). […]

PR1 mRNA [2] = conditions: same experimental system, Vidal et al, 1997; cited from earlier work

| Compound | transcript level of β-1,3-glucanase during UPR-induced BiP transcription (time course) (β-1,3-glucanase mRNA; protoplasts) | β1,3-glucanase expression in protoplasts (β-1,3-glucanase mRNA; 2.5 hrs) | PR1 induction during SA-treatment in saiI mutant (PR1 mRNA [1]; Arabidopsis saiI mutant) | time after SA-treatment at which induction of PR1 is detected (PR1 mRNA [1]; WT Arabidopsis, light) [h] | time until which PR1 induction continues to increase (PR1 mRNA [1]; WT Arabidopsis, light) [h] | BiP mRNA levels in saiI mutants during SA-treatment (BiP mRNA) | time until which PR1 continues to accumulate (shown previously) (PR1 mRNA [2]) [h] |
| --- | --- | --- | --- | --- | --- | --- | --- |
| tunicamycin | rapidly decreases | inhibited | – | – | – | – | – |
| O=C(O)c1ccccc1O [SA, Salicylic Acid] | – | – | completely abolished | 3 | ≤ 8 | exactly the same induction pattern as in the wild-type plant | ≤ 48 |
